Test results: patent US20190240225A1, “COMBINATION OF A BCL-2 INHIBITOR AND A MCL-1 INHIBITOR, USES AND PHARMACEUTICAL COMPOSITIONS THEREOF” (LES LABORATOIRES SERVIER, priority 2016, published 2019)
Where two headings read alike, the source gives them in different places.

Legend:
Type in all cases: cell-based
GDM-1 = assay: CellTiterGlo viability, AML cell line; details: single agent, 3 days
Method: (§1) In addition, all media contained penicillin (100 IU/ml), streptomycin (100 μg/ml) and L-glutamine (2 mM).
(§2) Cell lines were cultured at 37° C. in a humidified atmosphere containing 5% CO2 and expanded in T-150 flasks. In all cases cells were thawed from frozen stocks, expanded through ≥1 passage using appropriate dilutions, counted and assessed for viability using a CASY cell counter prior to plating 150 ul/well at the densities indicated in Table 1 into 96-well plates. All cell lines were determined to be free of mycoplasma contamination in-house.
(§3) Stock solutions of compounds were prepared at a concentration of 5 mM in DMSO and stored at −20° C.
(§4) In order to analyse the activity of the compounds as single agents, cells were seeded and treated with nine 2-fold serial dilutions of each compound dispensed individually directly into the cell assay plates. Effects of the compounds on cell viability were assessed after 3 days of incubation at 37° C./5% CO2 by quantification of cellular ATP levels using CellTiterGlo at 75 μL reagent/well. All the experiments were performed in triplicates. Luminescence was quantified on a multipurpose plate reader. Single agent IC50s were calculated using standard four-parametric curve fitting. IC50 is defined as the compound concentration at which the CTG signal is reduced to 50% of that measured for the vehicle (DMSO) control.
(§5) In order to analyse the activity of the compounds in combination, cells were seeded and treated with seven or eight 3.16-fold serial dilutions of each compound dispensed, either individually or in all possible permutations in a checkerboard fashion, directly into the cell assay plates as indicated in FIG. 9. Effects of the single agents as well as their checkerboard combinations on cell viability were assessed after 3 days of incubation at 37° C./5% CO2 by quantification of cellular ATP levels using CellTiterGlo at 75 μL reagent/well. Two independent experiments, each one performed in duplicates, were performed. Luminescence was quantified on a multipurpose plate reader.
(§6) Potential synergistic interactions between compound combinations were assessed using the Excess Inhibition 2D matrix according to the Loewe additivity model and are reported as Synergy Score (Lehar et al, Nat Biotechnol. 2009 July; 27(7): 659-666). All calculations were performed using Clalice™ Bioinformatics Software.

KG1a = assay: CellTiterGlo viability, AML cell line; details: single agent, 3 days
Method: as §1, §2, §3, §4, §5, §6

KG1 = assay: CellTiterGlo viability, AML cell line; details: single agent, 3 days
Method: as §1, §2, §3, §4, §5, §6

HL-60 = assay: CellTiterGlo viability, AML cell line; details: single agent, 3 days
Method: as §1, §2, §3, §4, §5, §6

ML-2 = assay: CellTiterGlo viability, AML cell line
Method: as §1, §2, §3, §4, §5, §6

MV4;11 = assay: CellTiterGlo viability, AML cell line; details: single agent, 3 days
Method: as §1, §2, §3, §4, §5, §6

PL-21 = assay: CellTiterGlo viability, AML cell line; details: single agent, 3 days
Method: as §1, §2, §3, §4, §5, §6

EOL-1 = assay: CellTiterGlo viability, AML cell line; details: single agent, 3 days
Method: as §1, §2, §3, §4, §5, §6

THP-1 = assay: CellTiterGlo viability, AML cell line; details: single agent, 3 days
Method: as §1, §2, §3, §4, §5, §6

MOLM-13 = assay: CellTiterGlo viability, AML cell line; details: single agent, 3 days
Method: as §1, §2, §3, §4, §5, §6

Nomo-1 = assay: CellTiterGlo viability, AML cell line; details: single agent, 3 days
Method: as §1, §2, §3, §4, §5, §6

Kasumi-1 = assay: CellTiterGlo viability, AML cell line; details: single agent, 3 days
Method: as §1, §2, §3, §4, §5, §6

U-937 = assay: CellTiterGlo viability, DLBCL cell line; details: single agent, 2 days; for IC50: read-out: Abs IC50
Method: In addition, all media contained penicillin (100 IU/ml), streptomycin (100 μg/ml) and L-glutamine (2 mM). Unless otherwise mentioned, culture media and supplements were from Amimed/Bioconcept (Allschwil, Switzerland).
Cell lines were cultured at 37° C. in a humidified atmosphere containing 5% CO2 and expanded in T-75 flasks. In all cases cells were thawed from frozen stocks, expanded through ≥1 passage using appropriate dilutions, counted and assessed for viability using a CASY cell counter (Omni Life Science, Bremen, Germany) prior to plating 25 ul/well at the densities indicated in Table 1 into 384-well plates (Corning). All cell lines were determined to be free of mycoplasma contamination by PCR assay performed at Idexx Radii (Columbia, Mo., USA) and misidentification ruled out by assessment of a panel of 48 Small Nucleotide Polymorphisms (SNPs) at Asuragen (Austin, Tex., USA) or in-house.
Stock solutions of compounds were prepared at a concentration of 10 mM in DMSO (Sigma) and stored at −20° C. Where necessary to afford a full dose-response curve, the stock solutions were pre-diluted in DMSO to 1′000-fold the desired start concentration (see Table 2). On the day after cell seeding, eight 2.5-fold serial dilutions of each compound were dispensed, either individually or in all possible permutations in a checkerboard fashion, directly into the cell assay plates using a non-contact 300D Digital Dispenser (ILCAN, Mannedorf, Switzerland) as outlined in FIG. 4. The final concentration of DMSO was 0.2% in all wells.
Effects of the single agents as well as their checkerboard combinations on cell viability were assessed after 2 days of incubation at 37° C./5% CO2 by quantification of cellular ATP levels using CellTiterGlo (Promega, Madison, Wis., USA) at 25 μL reagent/well and n=2 replicate plates per condition. Luminescence was quantified on a M1000 multipurpose platereader (ILCAN, Mannedorf, Switzerland). The number/viability of cells at time of compound addition was likewise assessed and used to assess the degree of the population doubling time of a particular cell line.
Single agent IC50s were calculated using standard four-parametric curve fitting. […] IC50 are defined as the compound concentration at which the CTG signal is reduced to 50% of that measured for the vehicle (DMSO) control.

Z-138 = assay: CellTiterGlo viability, Mantle Cell Lymphoma cell line; details: single agent, 2 days
Method: (§7) In addition, all media contained penicillin (100 IU/ml), streptomycin (100 μg/ml) and L-glutamine (2 mM). […] All cell lines were determined to be free of mycoplasma contamination in-house. Stock solutions of compounds were prepared at a concentration of 5 mM in DMSO and stored at −20° C. In order to analyse the activity of the compounds as single agents or in combination, cells were seeded and treated with seven or eight 3.16-fold serial dilutions of each compound dispensed, either individually or in all possible permutations in a checkerboard fashion, directly into the cell assay plates. […] All the conditions were tested in triplicates. Luminescence was quantified on a multipurpose plate reader. […] All calculations were performed using Chalice™ Bioinformatics Software available in Horizon website. Single agent IC50s were calculated using standard four-parametric curve fitting.

Mino = assay: as above; details: single agent, 2 days
Method: as §7

Jeko = assay: as above; details: single agent, 2 days
Method: as §7

REC-1 = assay: as above; details: single agent, 2 days
Method: as §7

JVM-2 = assay: as above; details: single agent, 2 days
Method: as §7

Structure (SMILES): Cl.O=C(c1cc(-c2cc3c(cc2C(=O)N2Cc4ccccc4C[C@H]2CN2CCOCC2)OCO3)n2c1CCCC2)N(c1ccccc1)c1ccc(O)cc1 [Compound 1, HCl, N-(4-hydroxyphenyl)-3-{6-[((3S)-3-(4-morpholinylmethyl)-3,4-dihydro-2(1H)-isoquinolinyl)carbonyl]-1,3-benzodioxol-5-yl}-N-phenyl-5,6,7,8-tetrahydro-1-indolizine carboxamide hydrochloride]
- IC50 (GDM-1; Homo sapiens, 72 h): 60 nM
- IC50 (KG1a; Homo sapiens, KG-1a, 72 h): 1750 nM
- IC50 (KG1; Homo sapiens, KG-1, 72 h): 4700 nM
- IC50 (HL-60; Homo sapiens, 72 h): 1420 nM
- IC50 (ML-2; Homo sapiens, 72 h, single agent, 3 days): 40 nM
- IC50 (MV4;11; Homo sapiens, 72 h): 30 nM
- IC50 (PL-21; 72 h): 2780 nM
- IC50 (EOL-1; Homo sapiens, EOL1, 72 h): 40 nM
- IC50 (THP-1; Homo sapiens, 72 h): 750 nM
- IC50 (MOLM-13; Homo sapiens, 72 h): 40 nM
- IC50 (Nomo-1; Homo sapiens, 72 h): 7450 nM
- IC50 (Kasumi-1; Homo sapiens, 72 h): 770 nM
- IC50 (U-937; Homo sapiens, 48 h): 6830 nM
- Max Inh (U-937): 62.1%
- IC50 (Z-138; Homo sapiens, 48 h): > 5000 nM
- Max Inh (Z-138): 25.0%
- IC50 (Mino; Homo sapiens, 48 h): 91 nM
- Max Inh (Mino): 91.0%
- IC50 (Jeko; 48 h): > 5000 nM
- Max Inh (Jeko): 35.0%
- IC50 (REC-1; Homo sapiens, Rec1, 48 h): 703 nM
- Max Inh (REC-1): 78.0%
- IC50 (JVM-2; Homo sapiens, 48 h): > 5000 nM
- Max Inh (JVM-2): 38.0%

Structure (SMILES): COc1ccccc1-c1nccc(COc2ccccc2C[C@@H](Oc2ncnc3sc(-c4ccc(F)cc4)c(-c4ccc(OCCN5CCN(C)CC5)c(Cl)c4C)c23)C(=O)O)n1 [Compound 3, (2R)-2-{[(5Sa)-5-{3-chloro-2-methyl-4-[2-(4-methylpiperazin-1-yl)ethoxy]phenyl}-6-(4-fluorophenyl)thieno[2,3-d]pyrimidin-4-yl]oxy}-3-(2-{[2-(2-methoxyphenyl)pyrimidin-4-yl]methoxy}phenyl)propanoic acid]
- IC50 (GDM-1): 8 nM
- Mean of Max Inh (GDM-1; combination (c) experiment): 100%
- IC50 (KG1a): 2000 nM
- IC50 (KG1): 390 nM
- IC50 (HL-60): 25 nM
- growth inhibition (ML-2; fifth lowest concentration tested, Compound 4, HCl / Compound 3 experiment): 26%
- IC50 (ML-2; single agent, 3 days): 5 nM
- Mean of Max Inh (ML-2; single agent, combination (c) experiment, 3 days): 100%
- IC50 (MV4;11): 1 nM
- Mean of Max Inh (MV4;11; combination (c) experiment): 100.0%
- IC50 (PL-21): 65 nM
- IC50 (EOL-1): 1 nM
- IC50 (THP-1): 17 nM
- IC50 (MOLM-13): 2 nM
- Mean of Max Inh (MOLM-13; combination (c) experiment): 100%
- IC50 (Nomo-1): 13 nM
- IC50 (Kasumi-1): 33 nM
- Max Inh (U-937): 97.1%
- IC50 (U-937): 8.32 nM
- IC50 (Z-138): 448 nM
- Max Inh (Z-138): 96.0%
- IC50 (Mino): 8 nM
- Max Inh (Mino): 100.0%
- IC50 (Jeko): 23 nM
- Max Inh (Jeko): 100.0%
- IC50 (REC-1): 77 nM
- Max Inh (REC-1): 99.0%
- IC50 (JVM-2): > 2000 nM
- Max Inh (JVM-2): 19.0%
